Patent US10829483B2, “Thiophene, manufacturing method thereof, and pharmaceutical application of same” (CSTONE PHARMACEUTICAL (SUZHOU) CO., LTD., priority 2016, dated 2020)

What follows are compounds tested against URAT-1 (uric acid transporter) (Homo sapiens (Human), UniProt Q96S37) (assay: Inhibition of 14C uric acid transport by HEK293 cell line stably transfected with the URAT-1 gene). Conditions: URAT-1 (HEK293) cells; 14C-labelled uric acid 50 um, 10 min at 37° C.; read-out: IC50 (inhibition against URAT-1).
Sequence of URAT-1 (uric acid transporter) (Q96S37 whole entry): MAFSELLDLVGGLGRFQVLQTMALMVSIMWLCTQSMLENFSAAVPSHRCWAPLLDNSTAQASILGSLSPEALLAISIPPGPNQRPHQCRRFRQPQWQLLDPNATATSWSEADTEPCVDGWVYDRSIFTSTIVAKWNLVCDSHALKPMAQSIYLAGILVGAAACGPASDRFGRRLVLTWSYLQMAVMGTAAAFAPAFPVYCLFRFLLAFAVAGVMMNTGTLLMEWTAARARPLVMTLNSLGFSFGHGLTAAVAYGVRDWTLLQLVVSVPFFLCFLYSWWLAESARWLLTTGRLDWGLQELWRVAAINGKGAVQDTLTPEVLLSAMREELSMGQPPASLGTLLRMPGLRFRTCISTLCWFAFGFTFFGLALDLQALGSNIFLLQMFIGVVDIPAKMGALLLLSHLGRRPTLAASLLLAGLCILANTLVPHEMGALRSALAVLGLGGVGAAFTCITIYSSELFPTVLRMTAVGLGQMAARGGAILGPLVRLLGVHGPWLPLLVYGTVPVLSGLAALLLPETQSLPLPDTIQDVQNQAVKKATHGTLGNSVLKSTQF
Format: cell-based
Protocol: Determination of the IC50 value of the inhibitory activity of the compound against uric acid reabsorption by the HEK293 cell line stably transfected with the URAT-1 (uric acid transporter) gene.
URAT-1 (HEK293) cell line: the HEK293 cell line stably transfected with the URAT-1 gene
cell culture medium: DMEM culture medium added 10% fetal bovine serum (FBS), 1% sodium pyruvate and […] G418.
Uric acid solution labeled by ^14C.
1) the supernatant of cell culture was aspirated, and cells was washed with 10 mL PBS.
2) preheated trypsin was added into the cell culture flask, and the cell culture flask was rotated to make trypsin covering onto the bottom of cell culture flask equably.
3) the cells were suspended with 10-15 mL of culture medium in each T150 flask, took 0.1 mL of cell suspension and diluted it with two volumes of trypan blue solution to count the cells.
4) cells were diluted to 2.5×10^5/mL with the culture medium, and the diluted cells were added into a rat tail collagen-coated 24-well plate (800 uL/well, 2×10^5 cells/well). The plate was incubated overnight at 37° C. in a 5% CO2 incubator.
1) cells were seeded into 24-well plate, and supernatant was discarded after 16-18 h. The cells were washed twice using 600 ul HBSS buffer.
2) HBSS buffer was removed and 180 ul of HBSS buffer was added into each well again.
1) compounds were dissolved into 100% DMSO, and diluted into 6 concentration points by 3-fold dilution, or into 2 concentration points by 10-fold dilution, and the highest starting concentration was 50 mM.
2) 5 ul DMSO solution in step 1) was transferred into 120 ul of HBSS buffer to make a 25-fold dilution.
3) 10 ul diluted solution in step 2) was added into 24-well plate, and the plate was incubated for 15 min at 37° C. in a 5% CO2 incubator. The final concentration of DMSO is 0.2%. The control well contained 0.2% DMSO without compound.
^14C-labelled uric acid was diluted and added into plate, and the final concentration is 50 um. The plate was incubated for 10 min at 37° C. in a 5% CO2 incubator. After supernatant was discarded, cells were washed with HBSS buffer twice. Cells was lysed with 0.1M NaOH. And then cell lysis solution was collected into liquid scintillation tube and added with liquid scintillation solution. The signal was read by liquid scintillation counter Tri-Carb. e) data analysis URAT-1 inhibition by the treatment of the compounds was analyzed by calculating the percentage of inhibition. Non-linear fitting analysis of percent inhibition (inh %) data using GraphPad Prism software to generate the IC50 value.
`CN(C)c1ccc(-c2sc(-n3cnnc3SCC(=O)O)c3c2CCC3)cc1` [WX053] was tested, and the IC50 was greater than 20 µM.
Compound `O=C(O)CSc1nncn1-c1sc(-c2ccc(Cl)c(Cl)c2)c2c1CCC2` [WX055] has an IC50 greater than 20 µM.
`Cc1cc(-n2c(Br)nnc2SC(C)C(=O)O)sc1-c1ccccc1` (centres unmarked) [WX080] showed an IC50 of 2 to 20 µM.
In the case of `Cc1cc(-n2cnnc2SCC(=O)O)sc1-c1ccc(F)cc1` [WX095], the IC50 is reported as greater than 20 µM.
`CC(C)(Sc1nnc(Br)n1-c1sc(-c2ccc(C(F)(F)F)cc2)c2c1CCCC2)C(=O)O` [WX010] showed an IC50 of 2 to 20 µM.
For `CC(C)(Sc1nnc(Br)n1-c1sc(-c2ccc(Cl)c(Cl)c2)c2c1CCCC2)C(=O)O` [WX011], the IC50 was less than 2 µM.
`CCC(Sc1nnc(Br)n1-c1cc(C)c(C2CC2)s1)C(=O)O` (centres unmarked) [WX091] was tested, and the IC50 was less than 2 µM.
With `O=C(O)CSc1nnc(Br)n1-c1sc(C2CC2)c2c1CCCC2` [WX001] the IC50 was less than 2 µM.
Compound `CN(C)c1ccc(-c2sc(-n3cnnc3SC(C)(C)C(=O)O)c3c2CCCC3)cc1Br` [WX023] has an IC50 of 2 to 20 µM.
`CC1(C)Cc2c(C3CC3)sc(-n3c(Br)nnc3SC3(C(=O)O)CCC3)c2C1` [WX066] was tested, and the IC50 was less than 2 µM.
Work on `O=C(O)C1(Sc2nnc(Br)n2-c2sc(C3CC3)c3c2CCCC3)CCC1` [WX029] yielded an IC50 of less than 2 µM.
Compound `Cc1cc(-n2cnnc2SCC(=O)O)sc1-c1ccc(C(F)(F)F)cc1` [WX097] has an IC50 greater than 20 µM.
Work on `COc1ccc(-c2sc(-n3c(Br)nnc3SC(C)C(=O)O)c3c2CCCC3)cc1Br` (centres unmarked) [WX012] yielded an IC50 of less than 2 µM.
For `Cc1cc(-n2c(Br)nnc2SCC(=O)O)sc1-c1ccc(F)cc1` [WX082], the IC50 was greater than 20 µM.
`CC(C)C(Sc1nnc(Br)n1-c1sc(C2CC2)c2c1CCCC2)C(=O)O` (centres unmarked) [WX028] gave an IC50 of less than 2 µM.
`O=C(O)CSc1nncn1-c1sc(-c2ccc(C(F)(F)F)cc2)c2c1CCC2` [WX051] showed an IC50 greater than 20 µM.
Compound `COc1ccc(-c2sc(-n3c(Br)nnc3SC(C)(C)C(=O)O)cc2Cl)cc1` [WX071] has an IC50 of 2 to 20 µM.
`O=C(O)CSc1nnc(Br)n1-c1sc(-c2cccc(F)c2)c2c1CCCC2` [WX007] showed an IC50 of 2 to 20 µM.
For `Cc1cc(-n2c(Br)nnc2SC(C)(C)C(=O)O)sc1C1CC1` [WX089], the IC50 was 2 to 20 µM.
For `O=C(O)CSc1nnc(Br)n1-c1sc(-c2ccccc2)c2c1CCCC2` [WX003], the IC50 was 2 to 20 µM.
`CC(Sc1nnc(Br)n1-c1sc(-c2ccc(C(F)(F)F)cc2)c2c1CCCC2)C(=O)O` (centres unmarked) [WX014] showed an IC50 of less than 2 µM.
`O=C(O)C1(Sc2nnc(Br)n2-c2cc(Cl)c(C3CC3)s2)CCCC1` [WX069] gave an IC50 of less than 2 µM.
`CC(Sc1nnc(Br)n1-c1sc(-c2ccc(Cl)c(Cl)c2)c2c1CCCC2)C(=O)O` (centres unmarked) [WX018] showed an IC50 of 2 to 20 µM.
